Measurements taken from patent EP0870499A1, “Oral use of (+)-0-Demethyltramadol as analgesic” (Grünenthal GmbH, priority 1997, dated 1998).
Where two headings read alike, the source gives them in different places.

What was measured:
männliche NMRI-Mäuse [1] = assay: Tail-flick test (radiant heat) in the mouse; type: in vivo, Maus; conditions: for ED50: Mus musculus
Description: (§1) Dazu wurden männliche NMRI-Mäuse mit einem Gewicht von 20 bis 25 g oder weibliche Sprague Dawly-Ratten mit einem Gewicht von 120 bis 160 g verwendet. Die Tiere wurden einzeln in Testkäfige gesetzt und die Schwanzbasis einem fokussierten Wärmestrahl einer elektrischen Lampe (Rhema-Analgesiemeter) ausgesetzt. Die Lampenintensität wurde so eingestellt, daß die Zeit vom Einschalten der Lampe bis zum plötzlichen Wegzucken des Schwanzes (Schmerzlatenz) bei unbehandelten Tieren 3 bis 6 Sekunden betrug. Vor Gabe der erfindungsgemäß zu verwendenden Verbindung wurden die Tiere innerhalb von 5 Minuten zweimal getestet und der Mittelwert dieser Messungen als Vortestmittelwert berechnet. Die Schmerzmessung wurde 20, 40 und 60 Minuten nach intravenöser und 30, 60, 90, 120 Minuten nach oraler Gabe durchgeführt. Bei Anstieg der Schmerzlatenz wurde die maximale Expositionszeit auf 12 Sekunden beschränkt und die Zunahme der Latenzzeit von >150 % des Vortestmittelwerts als analgetische Wirkung gewertet. Zur Bestimmung der Dosisabhängigkeit wurden die Verbindungen in 3 bis 5 logarithmisch ansteigenden Dosen, die jeweils die Schwellen- und die maximale Wirkdosis einschlossen, appliziert und aus der Anzahl der Tiere, die analgetische Wirkung zeigten, nach der Methode von Litchfeld und Wilcoxon (J. Pharm. Ex. Ther. 96, 99 bis 113 (1949)) die ED50-Werte bestimmt. Die ED50-Berechnung erfolgte im Wirkmaximum jeweils 20 Minuten nach intravenöser und jeweils 30 Minuten nach oraler Substanzgabe.
(§2) Die Bestimmung der oralen Wirkverfügbarkeit erfolgte aus dem Verhältnis der ED50-Werte bei i.v.- und p.o.-Gabe. Wirkverfügbarkeit =(ED50 i.v.)/(ED50 p.o.) [formula]

männliche NMRI-Mäuse [2] = assay: Phenylquinone-induced writhing test in the mouse; type: in vivo, Maus
Description: Die Untersuchung auf analgetische Wirksamkeit wurde im Phenylchinon-induzierten Writhing an der Maus (modifiziert nach I. C. Hendershot, J. Forsaith, J. Pharmacol. Exp. Ther. 125, 237 - 240 (1959)) durchgeführt. Dazu wurden männliche NMRI-Mäuse mit einem Gewicht von 25 bis 30 g verwendet. Gruppen von 10 Tieren pro Substanzdosis erhielten 10 Minuten nach intravenöser Gabe und 30 Minuten nach oraler Gabe der erfindungsgemäß zu verwendenden Verbindungen 0,3 ml/Maus einer 0,02 %-igen wäßrigen Lösung des Phenylchinon (Phenylbenzochinon, Fa. Sigma, Deisenhofen; Herstellung der Lösung unter Zusatz von 5 % Ethanol und Aufbewahrung im Wasserbad bei 45° C) intraperitoneal appliziert. Die Tiere wurden einzeln in Beobachtungskäfige gesetzt und mittels Drucktastenzähler die Anzahl der Schmerz-induzierten Streckbewegungen (sogenannte Writhing-Reaktionen = Durchdrücken des Körpers nach Abstrecken der Hinterextremitäten) 5 bis 20 Minuten nach der Phenylchinongabe ausgezählt. Aus der dosisabhängigen Abnahme der Writhing-Reaktionen im Vergleich zu parallel untersuchten, nur mit Phenylchinon behandelten Kontrollgruppen wurden mittels Regressionsanalyse (Auswerteprogramm Martens, EDV-Serivce, Eckental) der ED50-Wert für die Hemmung der Writhing-Reaktlon berechnet.

[3] = Animal experiments on constipating effect (no method given); type: in vivo; conditions: compared with Morphin
[4] = test system: weibliche Sprague Dawly-Ratten; assay: Tail-flick test (radiant heat) in the rat; conditions: for ED50: Rattus norvegicus
Description: as §1, §2

[5] = test system: weibliche Sprague Dawly-Ratten; conditions: rat, in vivo
Description: as §1, §2

[6] = iv, 20 min, read-out: ED50-Werte Tail-flick, Ratte i.v.
[7] = po, 0.5 h, read-out: ED50-Werte Tail-flick, Ratte p.o.

| Compound | ED50 (männliche NMRI-Mäuse [1]; iv, 20 min, read-out: ED50-Werte Tail-flick, Maus i.v.) | ED50 (männliche NMRI-Mäuse [1]; po, 0.5 h, read-out: ED50-Werte Tail-flick, Maus p.o.) | orale Wirkverfügbarkeit (männliche NMRI-Mäuse [1]; Tail-flick, mouse, (ED50 i.v.)/(ED50 p.o.)) | besser oral verfügbar als Morphin (männliche NMRI-Mäuse [1]; mouse (tail-flick and writhing taken together), relative to Morphin) | analgetische Wirkung (männliche NMRI-Mäuse [2]; Writhing test, result in words) | orale Wirkverfügbarkeit (männliche NMRI-Mäuse [2]; Writhing, (ED50 i.v.)/(ED50 p.o.)) | ED50 (männliche NMRI-Mäuse [2]; iv, 10 min, i.v., phenylquinone i.p. 10 min after dosing, read-out: ED50-Werte Writhing, Maus i.v.) | ED50 (männliche NMRI-Mäuse [2]; po, 0.5 h, p.o., phenylquinone i.p. 30 min after dosing, read-out: ED50-Werte Writhing, Maus p.o.) | obstipierende Wirkungen [3] | ED50 [4, 6] | ED50 [4, 7] | analgetische Wirkung ([4]; Tail-flick test, rat, result in words) | orale Wirkverfügbarkeit ([4]; Tail-flick, rat, (ED50 i.v.)/(ED50 p.o.)) | besser oral verfügbar als Morphin ([4]; rat, tail-flick, relative to Morphin) | orale Wirkverfügbarkeit [5] |
| --- | --- | --- | --- | --- | --- | --- | --- | --- | --- | --- | --- | --- | --- | --- | --- |
| CN(C)C[C@H]1CCCC[C@]1(O)c1cccc(O)c1 [(+)-O-Demethyltramadol] | 1.41 mg/kg | 3.75 mg/kg | 0,38 | ~5 mal | ausgeprägte analgetische Wirkung | 0,26 | 0.49 mg/kg | 1.87 mg/kg | schwächere obstipierende Wirkungen als Morphin | 1.01 mg/kg | 4.9 mg/kg | ausgeprägte analgetische Wirkung | 0,21 | ~20 mal | – |
| CN1CC[C@]23c4c5ccc(O)c4O[C@H]2[C@@H](O)C=C[C@H]3[C@H]1C5 [Morphin, reference compound] | – | – | – | – | – | – | – | – | – | 0.93 mg/kg | 75 mg/kg | – | – | – | 0,01 |
